Results: article PMC12749748, “Chemically-induced degradation of the endoplasmic-reticulum stress sensor IRE1 by a VHL-recruiting chimera” (Nature Communications, 2025)
“Also recorded” adds a separate entry of the source.

How the values were obtained:
[1] = tested on: kinases inhibited by 90% or more; experiment: Immunoblot of kinases inhibited by 90% or more, for depletion in AMO1 and KMS27 cells; assay type: cell-based; conditions: AMO1 and KMS27 cells, 0.1, 0.3 and 1 µM, 4 h
Protocol: Cells were lysed in buffer containing 20 mM HEPES 7.2, 150 mM NaCl, and 1% Triton X-100, supplemented with fresh protease and phosphatase inhibitors (Invitrogen, #78440), cleared by centrifugation at 12,000 × g for 10 min, and analyzed by BCA protein assay (Thermo Fisher Scientific, #23227). Equal protein amounts were loaded, separated by SDS-PAGE, electrotransferred to nitrocellulose membranes using the iBLOT2 system (Invitrogen), and blocked in 5% nonfat milk solution for 60 min. Membranes were probed with primary antibodies at 1:1000 dilution in 5% milk at 4 °C overnight. Signal was detected using appropriate horseradish peroxidase (HRP)-conjugated secondary antibodies at 1:10,000 in 5% milk at room temperature for 1–2 h. Bands were visualized by the Azure 600 western blot imaging system (Azure Biosystems). For in vitro ubiquitination assays performed with Me-Ub, bands were visualized by the Odyssey CLx Imager (LI‑COR) after incubating the blots with the IRDye 800CW (LI-COR) secondary antibodies at 1:10,000 in Intercept Blocking Buffer (LI-COR) at room temperature for 1–2 h. […]
The kinome selectivity of G6374 was assessed at 1 μM for 1 h versus a panel of 220 human kinases (SelectScreen Kinase Profiling Services, Thermo Fisher Scientific). […]

[2] = molecular target: T1, IRE1.KR with recombinant CRL2^VHL complex (Homo sapiens, UniProt O75460+P40337); experiment: In vitro ubiquitination of recombinant IRE1.KR by CRL2^VHL; assay type: biochemical; conditions: 0.2 µM IRE1, 0.2 µM G6374, UBE2R1, native ubiquitin
T1 construct: Recombinant human IRE1.KR (G547-L977) was purified using an established protocol; His6 (with TEV protease cleavage site) (N, cleaved yes); made in house; host or cells: Sf9 (IRE1.KR)
Protocol: The protocol for the in vitro ubiquitination experiment was adapted from a previous publication.
The ubiquitination reaction buffer contained 30 mM Tris pH 7.5, 100 mM NaCl, 5 mM MgCl2, 2 mM ATP, and 2 mM DTT. Recombinant proteins and G6374 with high stock concentrations were pre-diluted in binding buffer containing 30 mM Tris, pH 7.5, 100 mM NaCl, 1 mM DTT for the purpose of accurate pipetting.
The 0.2 µM IRE1: 0.2 µM G6374 (or DMSO) complex was pre-incubated for 15 min at room temperature, then incubated with the neddylation reaction mixture containing 0.2 µM VHL:EloB:EloC, 0.2 µM CUL2-RBX1, 0.1 µM NAE1:UBA3, 1 μM UBE2M, 3 μM NEDD8 for another 15 min at room temperature. Meanwhile, the ubiquitination reaction mixture containing 1 μM UBE1, 5 μM UBE2R1 (or UBE2D1, UBE2D2), and 500 μM ubiquitin or methyl-ubiquitin was prepared and pre-incubated for 15 min before incubation with the neddylation reaction mixture containing IRE1:G6374. Samples were taken at each timepoint and quenched in NuPage LDS buffer supplemented with NuPAGE sample reducing agent, then boiled at 95 °C for 10 min. Ubiquitinated products were visualized by IB with the IRE1 antibody.

U2OS cells = experiment: Incucyte cell confluency, U2OS cells; assay type: cell-based; conditions: U2OS shIRE1 cells, titration
Protocol: (§1) For non-adherent AMO1, KMS27, and OPM2 cells, cells were plated at 5000 cells/well in ultra-low attachment (ULA) 96-well plates (Costar, #7007) and centrifuged at 600 × g for 5 min for spheroid formation. For adherent U2OS and Colo201 cells, 2000 cells/well were seeded in a clear flat-bottom 96-well plate (Costar, #3595). Treatments were added at the time of cell seeding, and cells were cultured in complete RPMI media to a final volume of 200 µL/well. Cultures were maintained at 37 °C throughout the duration of the experiment. Cell confluency was tracked using the Incucyte live-cell imaging system (Sartorius S3). Picture frames were captured every 4 h with a 4× objective, and cell confluency (%) from the total well area as a function of time was calculated using the Incucyte software (version 2023 A Rev2).

Colo201 cells = experiment: Incucyte cell confluency, Colo201 cells; assay type: cell-based; conditions: Colo201 shIRE1 cells, titration
Protocol: as §1

IRE1 = IRE1 (Homo sapiens, UniProt O75460); experiment: Immunoblot of endogenous IRE1 depletion in AMO1 cells; assay type: cell-based; set-up: Immunoblot (IB) analysis of endogenous IRE1 depletion in AMO1 cells; endogenous in cells; host or cells: AMO1
Protocol: Cells were lysed in buffer containing 20 mM HEPES 7.2, 150 mM NaCl, and 1% Triton X-100, supplemented with fresh protease and phosphatase inhibitors (Invitrogen, #78440), cleared by centrifugation at 12,000 × g for 10 min, and analyzed by BCA protein assay (Thermo Fisher Scientific, #23227). Equal protein amounts were loaded, separated by SDS-PAGE, electrotransferred to nitrocellulose membranes using the iBLOT2 system (Invitrogen), and blocked in 5% nonfat milk solution for 60 min. Membranes were probed with primary antibodies at 1:1000 dilution in 5% milk at 4 °C overnight. Signal was detected using appropriate horseradish peroxidase (HRP)-conjugated secondary antibodies at 1:10,000 in 5% milk at room temperature for 1–2 h. Bands were visualized by the Azure 600 western blot imaging system (Azure Biosystems). For in vitro ubiquitination assays performed with Me-Ub, bands were visualized by the Odyssey CLx Imager (LI‑COR) after incubating the blots with the IRDye 800CW (LI-COR) secondary antibodies at 1:10,000 in Intercept Blocking Buffer (LI-COR) at room temperature for 1–2 h.

[3] = AMO1 cells, 17 h, immunoblot quantification, n = 4, mean ± SEM

Sequence of IRE1 (O75460 19-977): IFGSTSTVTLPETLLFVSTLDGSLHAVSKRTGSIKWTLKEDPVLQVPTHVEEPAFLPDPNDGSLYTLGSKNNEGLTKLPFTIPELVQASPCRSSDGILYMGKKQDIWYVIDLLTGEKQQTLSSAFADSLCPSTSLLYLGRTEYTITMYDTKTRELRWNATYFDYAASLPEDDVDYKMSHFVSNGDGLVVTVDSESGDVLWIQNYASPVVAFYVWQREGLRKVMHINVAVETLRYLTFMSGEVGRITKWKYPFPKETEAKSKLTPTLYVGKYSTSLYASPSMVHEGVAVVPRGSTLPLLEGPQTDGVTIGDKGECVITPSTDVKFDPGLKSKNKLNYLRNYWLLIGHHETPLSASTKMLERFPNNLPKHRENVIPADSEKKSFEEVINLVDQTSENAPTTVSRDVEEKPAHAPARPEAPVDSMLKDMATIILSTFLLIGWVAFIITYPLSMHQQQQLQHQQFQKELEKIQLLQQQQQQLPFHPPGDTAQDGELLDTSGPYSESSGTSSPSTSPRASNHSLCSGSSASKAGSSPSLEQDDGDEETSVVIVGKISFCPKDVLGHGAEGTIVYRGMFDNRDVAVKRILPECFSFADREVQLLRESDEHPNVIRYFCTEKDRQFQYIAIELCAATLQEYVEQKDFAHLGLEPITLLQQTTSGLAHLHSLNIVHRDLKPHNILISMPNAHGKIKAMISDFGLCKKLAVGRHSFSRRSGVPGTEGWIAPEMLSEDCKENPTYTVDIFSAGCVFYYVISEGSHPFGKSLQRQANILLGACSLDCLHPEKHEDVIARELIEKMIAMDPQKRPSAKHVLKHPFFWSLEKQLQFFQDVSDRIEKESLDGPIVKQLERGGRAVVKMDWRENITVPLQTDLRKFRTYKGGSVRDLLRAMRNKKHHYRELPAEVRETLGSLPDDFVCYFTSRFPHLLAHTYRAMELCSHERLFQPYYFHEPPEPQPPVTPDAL

For `Cc1ncsc1-c1ccc(CNC(=O)[C@@H]2C[C@@H](O)CN2C(=O)[C@@H](NC(=O)CCCCN2CCN([C@H]3CC[C@H](Nc4ncc5ccc(=O)n(C(C)C)c5n4)CC3)CC2)C(C)(C)C)cc1` [G6374], the “depletion of the other eight kinases (JNK3 not detectable)” value [1] was “not appreciably depleted”, the “IRE1.KR polyubiquitination in vitro” value [2] was “clear G6374-dependent IRE1 polyubiquitination” and the “proliferation rate (cell confluency)” value (U2OS cells) was “did not affect the proliferation rate”. The “proliferation rate (cell confluency)” value (Colo201 cells) was “did not affect the proliferation rate”, the “IRE1 depletion under ER stress (thapsigargin or tunicamycin)” value (IRE1; AMO1 and KMS27 cells, G6374 3 µM, 2 hr, Tg 100 nM or Tm 5 µg/ml, 6 hr) was “did not encumber G6374-driven IRE1 depletion” and the “IRE1 depletion over a time course” value (IRE1; AMO1 cells, 1 µM, 0-8 h) was “reaches near maximum levels by 4 hr; also recorded: near complete IRE1 depletion by 4 h”. For the same molecule, the DC50 (IRE1; [3]) was 40 nM and the Dmax (IRE1; [3]) was 93%.
